# Data taken from publication PMC6446940 (ChemMedChem, 2018).
# Legend:
# TZM-bl cells = assay: Cytotoxicity; assay type: cell-based; conditions: for CC50: read-out: TZMb-l CC50, TZM-bl cells, 3 days, MTS, mean ± SD, n=3; for cytotoxicity became higher: di-fluoro at position 2 of 1,3-benzodioxole, versus non-fluorinated compounds; for cytotoxicity higher compared with the parent compounds: compared with NBD-14122 / NBD-14123
# HIV-1IIIB = assay: Multi-cycle infection assay in MT-2 cells; assay type: cell-based; conditions: read-out: MT-2 IC50, p24, mean ± SD, n=3
# pseudovirus HIV-1HXB2 = assay: Single-cycle infection assay in TZM-bl cells; conditions: for antiviral activity (in words): SAR discussion of Table 1
# MT-2 cells = assay: Cytotoxicity; assay type: cell-based, human; conditions: read-out: MT-2 CC50, MTS, mean ± SD, n=3
# Cytotoxicity [1] = assay type: cell-based; conditions: human, TZM-bl cells, TZMb-l CC50, TZM-bl cells, 3 days, MTS; mean ± SD, n=3
# Cytotoxicity [2] = assay type: cell-based, human; conditions: human, MT-2 cells, MT-2 CC50, MT-2 cells, MTS; mean ± SD, n=3
# [3] = target: HIV-1 Reverse Transcriptase (RT) (Human immunodeficiency virus type 1 group M subtype B, UniProt P04585); assay: biochemical; assay type: biochemical
SMILES,CC50 (TZM-bl cells) [µM],IC50 (HIV-1IIIB) [µM],CC50 (MT-2 cells) [µM],CC50 at 3 days (Cytotoxicity [1]) [µM],CC50 at 4 days (Cytotoxicity [2]) [µM],also measured
"CC1(C)Oc2ccc(-c3ccc(C(=O)NC(CN)c4ncc(CO)s4)[nH]3)cc2O1 (stereo not drawn) [NBD-14134, N-(2-amino-1-(5-(hydroxymethyl)thiazol-2-yl)ethyl)-5-(2,2-dimethylbenzo[d][1,3]dioxol-5-yl)-1H-pyrrole-2-carboxamide]",61.1 ± 1.4,15.3 ± 5,89.3 ± 1.3,,,antiviral activity (in words) (pseudovirus HIV-1HXB2): lost their antiviral potency
"CNCC(NC(=O)c1ccc(-c2ccc3c(c2)OCO3)[nH]1)c1ncc(CO)s1 (stereo not drawn) [NBD-14140, 5-(benzo[d][1,3]dioxol-5-yl)-N-(1-(5-(hydroxymethyl)thiazol-2-yl)-2-(methylamino)ethyl)-1H-pyrrole-2-carboxamide]",153 ± 11.5,9.32 ± 2.8,173 ± 8,,,
"NCC(NC(=O)c1ccc(-c2ccc3c(c2)OC(F)(F)O3)[nH]1)c1ncc(CO)s1 (stereo not drawn) [NBD-14144, N-(2-amino-1-(5-(hydroxymethyl)thiazol-2-yl)ethyl)-5-(2,2-difluorobenzo[d][1,3]dioxol-5-yl)-1H-pyrrole-2-carboxamide]",,,,37.9 ± 2.4,43.4 ± 3.6,cytotoxicity became higher (TZM-bl cells): ~ 3.9 fold; improvement in antiviral activity compared with NBD-14122 (pseudovirus HIV-1HXB2): ~ 4.5 fold
"Cc1nc(C(CN)NC(=O)C(=O)Nc2ccc3c(c2)OCO3)sc1CO (stereo not drawn) [NBD-14108, N1-(2-amino-1-(5-(hydroxymethyl)-4-methylthiazol-2-yl)ethyl)-N2-(benzo[d][1,3]dioxol-5-yl)oxalamide]",,,,≥ 750,≥ 650,antiviral activity (in words) (pseudovirus HIV-1HXB2): completely lost
"NCC(NC(=O)c1ccc(-c2ccc3nsnc3c2)[nH]1)c1ncc(CO)s1 (stereo not drawn) [NBD-14126, N-(2-amino-1-(5-(hydroxymethyl)thiazol-2-yl)ethyl)-5-(benzo[c][1,2,5]thiadiazol-5-yl)-1H-pyrrole-2-carboxamide]",,,,79.9 ± 1,117 ± 4.3,cytotoxicity higher compared with the parent compounds (TZM-bl cells): about 1.5 fold; improvement in antiviral activity compared with NBD-14122 (pseudovirus HIV-1HXB2): about 2.8 fold
"Cc1nc(C(NC(=O)c2ccc(-c3ccc4c(c3)OCO4)[nH]2)C(C)(C)N)sc1CO (stereo not drawn) [NBD-14116, N-(2-amino-1-(5-(hydroxymethyl)-4-methylthiazol-2-yl)-2-methylpropyl)-5-(benzo[d][1,3]dioxol-5-yl)-1H-pyrrole-2-carboxamide]",,,,55.2 ± 5.4,98 ± 2.2,
"Cc1nc(C(NC(=O)c2ccc(-c3ccc4c(c3)OCO4)[nH]2)C(C)(C)N)sc1CO (stereo not drawn) [NBD-14117, N-(2-amino-1-(5-(hydroxymethyl)-4-methylthiazol-2-yl)-2-methylpropyl)-5-(benzo[d][1,3]dioxol-5-yl)-1H-pyrrole-2-carboxamide]",66.9 ± 1.4,2.5 ± 1,98 ± 1.5,,,
"Cc1nc(C(CN)NC(=O)c2ccc(-c3ccc4c(c3)OCO4)[nH]2)sc1CO (stereo not drawn) [NBD-14111, N-(2-amino-1-(5-(hydroxymethyl)-4-methylthiazol-2-yl)ethyl)-5-(benzo[d][1,3]dioxol-5-yl)-1H-pyrrole-2-carboxamide]",146 ± 5.2,9.8 ± 4.8,170 ± 9,,,antiviral activity (in words) (pseudovirus HIV-1HXB2): lost its antiviral activity
"CNCC(NC(=O)c1ccc(-c2ccc3c(c2)OCO3)[nH]1)c1ncc(CO)s1 (stereo not drawn) [NBD-14139, 5-(benzo[d][1,3]dioxol-5-yl)-N-(1-(5-(hydroxymethyl)thiazol-2-yl)-2-(methylamino)ethyl)-1H-pyrrole-2-carboxamide]",,,,149 ± 11.3,178 ± 8,
"NCC(NC(=O)c1ccc(-c2ccc3c(c2)OCO3)[nH]1)c1nc(CO)cs1 (stereo not drawn) [NBD-14173, N-(2-amino-1-(4-(hydroxymethyl)thiazol-2-yl)ethyl)-5-(benzo[d][1,3]dioxol-5-yl)-1H-pyrrole-2-carboxamide]",105 ± 7.9,8.2 ± 2.7,176 ± 4.3,,,
"CNCC(NC(=O)c1ccc(-c2ccc3c(c2)OCO3)[nH]1)c1nc(CO)cs1 (stereo not drawn) [NBD-14158, 5-(benzo[d][1,3]dioxol-5-yl)-N-(1-(4-(hydroxymethyl)thiazol-2-yl)-2-(methylamino)ethyl)-1H-pyrrole-2-carboxamide]",,9.5 ± 0.5,,157 ± 7.8,192 ± 4.2,
"NCC(NC(=O)c1ccc(-c2ccc3c(c2)OC(F)(F)O3)[nH]1)c1ncc(CO)s1 (stereo not drawn) [NBD-14145, N-(2-amino-1-(5-(hydroxymethyl)thiazol-2-yl)ethyl)-5-(2,2-difluorobenzo[d][1,3]dioxol-5-yl)-1H-pyrrole-2-carboxamide]",38.7 ± 1.3,3.1 ± 0.5,41 ± 2.7,,,"cytotoxicity became higher (TZM-bl cells): ~ 3.9 fold; improvement in antiviral activity (pseudovirus HIV-1HXB2; di-fluoro at position 2 of 1,3-benzodioxole, comparator not stated): ~ 1.7 fold"
"NCC(NC(=O)c1ccc(-c2ccc3c(c2)OCO3)[nH]1)c1ncc(CO)s1 (stereo not drawn) [NBD-14122, N-(2-amino-1-(5-(hydroxymethyl)thiazol-2-yl)ethyl)-5-(benzo[d][1,3]dioxol-5-yl)-1H-pyrrole-2-carboxamide]",154.4 ± 1.5,5.1 ± 0.4,183 ± 3,,,
"CC(C)(N)C(NC(=O)c1ccc(-c2ccc3c(c2)OCO3)[nH]1)c1ncc(CO)s1 (stereo not drawn) [NBD-14119, N-(2-amino-1-(5-(hydroxymethyl)thiazol-2-yl)-2-methylpropyl)-5-(benzo[d][1,3]dioxol-5-yl)-1H-pyrrole-2-carboxamide]",69.2 ± 3.8,2.8 ± 0.9,106 ± 4.4,,,improvement in antiviral activity/potency compared with NBD-14123 (pseudovirus HIV-1HXB2): ~ 2.3 fold
"NCC(NC(=O)c1ccc(-c2ccc3c(c2)OCO3)[nH]1)c1nc(CO)cs1 (stereo not drawn) [NBD-14172, N-(2-amino-1-(4-(hydroxymethyl)thiazol-2-yl)ethyl)-5-(benzo[d][1,3]dioxol-5-yl)-1H-pyrrole-2-carboxamide]",,2.4 ± 0.3,,92.3 ± 2.9,156 ± 14.3,improvement in antiviral activity/potency compared with NBD-14123 (pseudovirus HIV-1HXB2): about 1.5 fold
"CC1(C)CC(NC(=O)C(=O)Nc2ccc(Cl)cc2)CC(C)(C)N1 [NBD-556, reference compound]",,,,,,"IC50 ([3]; HIV-1 Reverse Transcriptase, mean ± SD, n=3): > 300 µM; activity against HIV-1 RT ([3]; at 300 μM): no activity"
"CC(C)(N)C(NC(=O)c1ccc(-c2ccc3c(c2)OCO3)[nH]1)c1ncc(CO)s1 (stereo not drawn) [NBD-14118, N-(2-amino-1-(5-(hydroxymethyl)thiazol-2-yl)-2-methylpropyl)-5-(benzo[d][1,3]dioxol-5-yl)-1H-pyrrole-2-carboxamide]",,,,64.3 ± 3.7,123 ± 10.5,
"NCC(NC(=O)c1ccc(-c2ccc3nsnc3c2)[nH]1)c1ncc(CO)s1 (stereo not drawn) [NBD-14127, N-(2-amino-1-(5-(hydroxymethyl)thiazol-2-yl)ethyl)-5-(benzo[c][1,2,5]thiadiazol-5-yl)-1H-pyrrole-2-carboxamide]",96.7 ± 2.9,7.3 ± 1.5,137 ± 1.5,,,cytotoxicity higher compared with the parent compounds (TZM-bl cells): about 1.5 fold; improvement in antiviral activity/potency compared with NBD-14123 (pseudovirus HIV-1HXB2): ~ 1.6 fold
"CC1(C)Oc2ccc(-c3ccc(C(=O)NC(CN)c4ncc(CO)s4)[nH]3)cc2O1 (stereo not drawn) [NBD-14133, N-(2-amino-1-(5-(hydroxymethyl)thiazol-2-yl)ethyl)-5-(2,2-dimethylbenzo[d][1,3]dioxol-5-yl)-1H-pyrrole-2-carboxamide]",,,,64 ± 1.2,96.5 ± 1.2,antiviral activity (in words) (pseudovirus HIV-1HXB2): lost their antiviral potency
